Results from patent US9907800B2, “Kinase inhibitors and method of treating cancer” (University Health Network, priority 2010, dated 2018).

Key:
Type in all cases: biochemical
Aurora B = Aurora B (Homo sapiens (Human), UniProt Q96GD4); assay: Aurora B inhibition assay (Z-Lyte); conditions: read-out: Aurora B IC50 Ranges
Description: Aurora B inhibition was determined using the Z-Lyte assay kit from Invitrogen. […] The % inhibition values were determined according to the manufacturer's directions and IC50 values were obtained using a non-linear 4 point logistic curve fit (XLfit4, IDBS)

FLT3 = FLT3 (Homo sapiens (Human), UniProt P36888); assay: FLT3 inhibition assay (Z-Lyte); conditions: read-out: Flt3 IC50 Ranges
Description: The enzymatic activity of FLT3 was determined using the Z-Lyte assay kit from Invitrogen (Invitrogen cat #PV3191). […] The % inhibition values were determined according to the manufacturer's directions and IC50 values were obtained using a non-linear 4 point logistic curve fit (XLfit4, IDBS).

human PLK4 = human PLK4 (Homo sapiens (Human), UniProt O00444); assay: PLK4 inhibition assay (indirect ELISA); conditions: read-out: PLK4 IC50 Ranges
Description: PLK4 activity was measured using an indirect ELISA detection system. […] The colourimetric reaction was allowed to continue for 5 minutes, followed by addition of stop solution (0.5 N sulphuric acid), and quantified by detection at 450 nm with either a monochromatic or filter based plate reader (Molecular Devices M5 or Beckman DTX880, respectively).
Compounds were pre-incubated in the presence of enzyme for 15 minutes prior to addition of ATP and the activity remaining quantified using the above described activity assay. […] The IC50 value was determined using a non-linear 4 point logistic curve fit (XLfit4, IDBS) with the formula; (A+(B/(1+((x/C)^D)))), where A=background value, B=range, C=inflection point, D=curve fit parameter.

Measured: IC50

Aurora B, sequence (Q96GD4 whole entry): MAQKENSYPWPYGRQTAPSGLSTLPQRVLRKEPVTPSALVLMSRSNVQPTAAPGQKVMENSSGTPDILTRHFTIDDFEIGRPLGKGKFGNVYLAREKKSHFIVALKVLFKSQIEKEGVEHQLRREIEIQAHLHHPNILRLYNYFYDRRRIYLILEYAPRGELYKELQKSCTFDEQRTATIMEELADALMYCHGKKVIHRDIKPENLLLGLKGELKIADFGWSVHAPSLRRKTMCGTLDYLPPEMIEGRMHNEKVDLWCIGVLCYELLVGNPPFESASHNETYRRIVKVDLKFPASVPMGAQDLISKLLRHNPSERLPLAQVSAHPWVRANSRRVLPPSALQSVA
FLT3, sequence (P36888 27-993): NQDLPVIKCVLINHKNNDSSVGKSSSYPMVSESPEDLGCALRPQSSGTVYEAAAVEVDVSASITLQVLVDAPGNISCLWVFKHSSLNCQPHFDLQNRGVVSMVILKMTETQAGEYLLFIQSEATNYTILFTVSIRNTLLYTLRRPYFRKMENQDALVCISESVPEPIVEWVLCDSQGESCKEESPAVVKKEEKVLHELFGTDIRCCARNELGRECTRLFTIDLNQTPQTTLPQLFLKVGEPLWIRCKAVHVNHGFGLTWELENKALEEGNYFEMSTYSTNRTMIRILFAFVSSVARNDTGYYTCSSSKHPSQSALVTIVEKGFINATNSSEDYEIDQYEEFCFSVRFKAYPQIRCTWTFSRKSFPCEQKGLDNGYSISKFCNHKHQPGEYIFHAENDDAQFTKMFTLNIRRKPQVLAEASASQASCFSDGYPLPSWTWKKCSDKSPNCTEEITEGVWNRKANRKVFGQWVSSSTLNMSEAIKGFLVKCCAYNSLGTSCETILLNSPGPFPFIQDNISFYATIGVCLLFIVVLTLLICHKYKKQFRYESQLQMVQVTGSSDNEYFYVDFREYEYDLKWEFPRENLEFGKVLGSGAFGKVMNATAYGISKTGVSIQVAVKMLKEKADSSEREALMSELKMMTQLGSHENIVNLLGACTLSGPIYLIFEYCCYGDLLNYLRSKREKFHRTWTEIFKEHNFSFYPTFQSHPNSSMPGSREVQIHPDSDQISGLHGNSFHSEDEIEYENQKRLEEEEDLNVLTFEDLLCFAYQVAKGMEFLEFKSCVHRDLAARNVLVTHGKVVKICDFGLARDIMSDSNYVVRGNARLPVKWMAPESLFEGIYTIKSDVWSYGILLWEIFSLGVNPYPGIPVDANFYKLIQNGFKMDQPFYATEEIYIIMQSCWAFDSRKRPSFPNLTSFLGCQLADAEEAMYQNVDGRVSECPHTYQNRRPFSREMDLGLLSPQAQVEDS
human PLK4, sequence (O00444 1-391): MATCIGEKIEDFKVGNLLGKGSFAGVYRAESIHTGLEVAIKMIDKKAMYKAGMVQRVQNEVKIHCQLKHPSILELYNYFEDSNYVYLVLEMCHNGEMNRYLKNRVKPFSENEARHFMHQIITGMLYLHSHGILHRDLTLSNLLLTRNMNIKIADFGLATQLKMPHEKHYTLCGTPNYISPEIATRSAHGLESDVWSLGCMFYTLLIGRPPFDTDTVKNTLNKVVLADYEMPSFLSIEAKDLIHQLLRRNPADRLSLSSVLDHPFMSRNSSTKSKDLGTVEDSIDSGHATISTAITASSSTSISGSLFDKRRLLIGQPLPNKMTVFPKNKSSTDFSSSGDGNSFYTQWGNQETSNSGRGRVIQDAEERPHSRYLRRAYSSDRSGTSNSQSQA

COc1ccc2c(c1)[C@@]1(C[C@@H]1c1ccc3c(-c4ccc(N5CCN(C)CC5)nc4)n[nH]c3c1)C(=O)N2 (stereo in doubt) [Example A16, (1S,2R)-5′-methoxy-2-(3-(6-(4-methylpiperazin-1-yl)pyridin-3-yl)-1H-indazol-6-yl)spiro[cyclopropane-1,3′-indolin]-2′-one]
< 100 nM: all assays above

COc1ccc2c(c1)[C@]1(C[C@H]1c1ccc3c(/C=C/c4ccc(N5CCN(C)CC5)cc4)n[nH]c3c1)C(=O)N2 [Example A175, (1R,2S)-(E)-5′-methoxy-2-(3-(4-(4-methylpiperazin-1-yl)styryl)-1H-indazol-6-yl)spiro[cyclopropane-1,3′-indolin]-2′-one 2,2,2-trifluoroacetate]
< 100 nM: all assays above
